The values below come from patent US20170233414A1, “DERIVATIVES OF BODIPY” (OREGON HEALTH & SCIENCE UNIVERSITY, priority 2016, published 2017).

Read-outs that look alike come from different tables or passages of the source.

Data set [1] in a line: Fluorescence properties and quantum yield measurements of the BAA library. Type of data set: physicochemical. Details: FWHM (full-width-at half max): unit not given here. Conditions: anhydrous DMSO; for λmax ABS / λmax EM: polystyrene 96 well plate; for FWHM (full-width-at half max): emission; for φfl (quantum yield): relative to reference fluorophore at three concentrations. The method, boiled down:
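Relative quantum yields used a three-concentration gradient method, with the reference set by absorbance maximum: fluorescein up to 510 nm (ex 470, em 490–800 nm), rhodamine B for 511–595 nm (ex 525, em 545–800 nm), cresyl violet above 595 nm (ex 570, em 590–800 nm). Spectral maxima and FWHM recorded in anhydrous DMSO.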

The conditions of data set [2]: cited from earlier work.

For the compound `COc1ccc(C=O)cc1OCCOc1cc(C=CC2=[N+]3C(=Cc4ccc(CCC(=O)O)n4[B-]3(F)F)C(C)=C2)ccc1OC` [BAA-74a], in data set [1], the “Stokes Shift” value was 18 nm, the “λmax ABS” value was found to be 584 nm, the “λmax EM” value was found to be 602 nm and the “FWHM (full-width-at half max)” value amounted to 59. In data set [1], the “φfl (quantum yield)” value amounted to 0.15.
Taken in the same sequence, the figures for `COc1ccc(C=O)cc1OCCOc1cc(C=CC2=[N+]3C(=Cc4ccc(C(=Cc5ccc(OC)c(OCCOc6cc(C=O)ccc6OC)c5)CC(=O)O)n4[B-]3(F)F)C(C)=C2)ccc1OC` [BAA-74b] were 17 nm, 583 nm, 600 nm, 51 and 0.22.
With `CC1=CC(C=Cc2ccc(N(CCC#N)CCC#N)cc2)=[N+]2C1=Cc1ccc(CCC(=O)O)n1[B-]2(F)F` [BAA-75a], in data set [1], the “Stokes Shift” value came out at 49 nm, the “λmax ABS” value was determined as 614 nm, the “λmax EM” value amounted to 663 nm and the “FWHM (full-width-at half max)” value is 91. Moreover, in data set [1], the “φfl (quantum yield)” value was determined as 0.08.
On to `CC1=CC(C=Cc2ccc(N(CCC#N)CCC#N)cc2)=[N+]2C1=Cc1ccc(C(=Cc3ccc(N(CCC#N)CCC#N)cc3)CC(=O)O)n1[B-]2(F)F` [BAA-75b], for which, in data set [1], the “Stokes Shift” value worked out at 55 nm, the “λmax ABS” value was 605 nm, the “λmax EM” value amounted to 660 nm and the “FWHM (full-width-at half max)” value was found to be 91. For the same compound, the “φfl (quantum yield)” value in data set [1] was 0.18.
In the same order, the values of `CC1=CC(C=Cc2c[nH]c3c(OCc4ccccc4)cccc23)=[N+]2C1=Cc1ccc(CCC(=O)O)n1[B-]2(F)F` [BAA-77a] are 31 nm, 603 nm, 634 nm, 61 and 0.50.
Taken in the same sequence, the figures for `CC1=CC(C=Cc2ccc(OCc3ccc([N+](=O)[O-])cc3)cc2)=[N+]2C1=Cc1ccc(CCC(=O)O)n1[B-]2(F)F` [BAA-78a] were 11 nm, 581 nm, 592 nm, 46 and 0.19.
In the case of `CC1=CC(C=Cc2ccc(OCc3ccc([N+](=O)[O-])cc3)cc2)=[N+]2C1=Cc1ccc(C(=Cc3ccc(OCc4ccc([N+](=O)[O-])cc4)cc3)CC(=O)O)n1[B-]2(F)F` [BAA-78b], in data set [1], the “Stokes Shift” value turned out to be 14 nm, the “λmax ABS” value is 579 nm, the “λmax EM” value is given as 593 nm and the “FWHM (full-width-at half max)” value stood at 39. For the same compound, the “φfl (quantum yield)” value in data set [1] stood at 0.37.
For `CCN(CC)c1ccc2c(-c3ccccc3C(=O)O)c3ccc(=[N+](CC)CC)cc-3oc2c1.[Cl-]` [Rhodamine B], in data set [2] (in ethanol, reference for max absorbance between 511-595 nm), the “φfl (quantum yield)” value is listed as 0.70.
Cresyl violet: the “φfl (quantum yield)” value in data set [2] (in methanol, reference for max absorbance above 595 nm) is on record as 0.54.
